The NIST ThermoML archive (doi:10.1021/acs.jced.6b00687)
Numbers after ± are expanded uncertainties.

Test: xn = mol fraction of the nth substance listed
Conditions: Gas, Buoyancy - hydrostatic balance with magnetic suspension - two sinkers

[Ar] [argon] + O=C=O
Conditions | mass density [kg/m3]
273.15 K, 510.11 kPa, x2 = 0.7509 | 9.89648 ± 0.0044
273.15 K, 511.42 kPa, x2 = 0.5 | 9.60258 ± 0.0043
273.15 K, 1005.7 kPa, x2 = 0.7509 | 20.0055 ± 0.0078
273.15 K, 1013.1 kPa, x2 = 0.5 | 19.3275 ± 0.0073
273.15 K, 2007.3 kPa, x2 = 0.7509 | 42.2195 ± 0.015
273.15 K, 2996.7 kPa, x2 = 0.7509 | 67.1561 ± 0.026
273.15 K, 3008.4 kPa, x2 = 0.5 | 61.4185 ± 0.022
273.15 K, 4022.5 kPa, x2 = 0.7509 | 97.4841 ± 0.045
273.15 K, 4488.6 kPa, x2 = 0.7509 | 113.378 ± 0.053
273.15 K, 5000.6 kPa, x2 = 0.7509 | 133.062 ± 0.059
273.15 K, 5017 kPa, x2 = 0.5 | 110.665 ± 0.05
273.15 K, 6031.1 kPa, x2 = 0.5 | 138.861 ± 0.047
273.15 K, 6410 kPa, x2 = 0.5 | 150.086 ± 0.05
283.15 K, 508.18 kPa, x2 = 0.7509 | 9.48215 ± 0.0043
283.15 K, 1002 kPa, x2 = 0.7509 | 19.109 ± 0.0073
283.15 K, 2002.5 kPa, x2 = 0.7509 | 40.0616 ± 0.014
283.15 K, 2989.1 kPa, x2 = 0.7509 | 63.047 ± 0.022
283.15 K, 3992.2 kPa, x2 = 0.7509 | 89.5274 ± 0.036
283.15 K, 4988.1 kPa, x2 = 0.7509 | 120.07 ± 0.063
283.15 K, 6073.3 kPa, x2 = 0.7509 | 160.561 ± 0.096
283.15 K, 6588 kPa, x2 = 0.7509 | 183.67 ± 0.17
283.15 K, 7263.8 kPa, x2 = 0.7509 | 219.753 ± 0.21
293.15 K, 502.06 kPa, x2 = 0.7509 | 9.02478 ± 0.0042
293.15 K, 1001.8 kPa, x2 = 0.7509 | 18.3618 ± 0.0071
293.15 K, 2024.4 kPa, x2 = 0.7509 | 38.7149 ± 0.014
293.15 K, 3001.1 kPa, x2 = 0.7509 | 60.0081 ± 0.021
293.15 K, 4009 kPa, x2 = 0.7509 | 84.353 ± 0.03
293.15 K, 4996.8 kPa, x2 = 0.7509 | 111.184 ± 0.044
293.15 K, 6024 kPa, x2 = 0.7509 | 143.207 ± 0.068
293.15 K, 7049 kPa, x2 = 0.7509 | 180.86 ± 0.11
293.15 K, 8016.8 kPa, x2 = 0.7509 | 223.61 ± 0.17
293.15 K, 9051.1 kPa, x2 = 0.7509 | 279.404 ± 0.24
298.15 K, 505.28 kPa, x2 = 0.5 | 8.65443 ± 0.21
298.15 K, 1014.6 kPa, x2 = 0.5 | 17.5824 ± 0.4
298.15 K, 2019.2 kPa, x2 = 0.5 | 35.8258 ± 0.013
298.15 K, 3020.7 kPa, x2 = 0.5 | 54.9064 ± 0.42
298.15 K, 4024.4 kPa, x2 = 0.5 | 75.0005 ± 2.1
298.15 K, 5017 kPa, x2 = 0.5 | 95.8895 ± 5.1
298.15 K, 6025.4 kPa, x2 = 0.5 | 118.229 ± 0.04
298.15 K, 7045.2 kPa, x2 = 0.5 | 142.007 ± 7.5
298.15 K, 8014 kPa, x2 = 0.5 | 165.743 ± 16
323.15 K, 514.24 kPa, x2 = 0.7509 | 8.34326 ± 0.004
323.15 K, 516.98 kPa, x2 = 0.4998 | 8.14761 ± 0.0039
323.15 K, 1021 kPa, x2 = 0.7509 | 16.796 ± 0.0066
323.15 K, 1022 kPa, x2 = 0.4998 | 16.244 ± 0.0064
323.15 K, 2012.2 kPa, x2 = 0.7509 | 34.0421 ± 0.014
323.15 K, 3034 kPa, x2 = 0.4998 | 49.9179 ± 0.018
323.15 K, 3036.1 kPa, x2 = 0.7509 | 52.9514 ± 0.019
323.15 K, 4037.8 kPa, x2 = 0.7509 | 72.6588 ± 0.031
323.15 K, 5040.2 kPa, x2 = 0.4998 | 85.8585 ± 0.031
323.15 K, 5061.8 kPa, x2 = 0.7509 | 94.214 ± 0.035
323.15 K, 6055.5 kPa, x2 = 0.7509 | 116.646 ± 0.053
323.15 K, 7040 kPa, x2 = 0.4998 | 124.127 ± 0.048
323.15 K, 7054.8 kPa, x2 = 0.7509 | 140.911 ± 0.055
323.15 K, 8053.7 kPa, x2 = 0.7509 | 167.037 ± 0.095
323.15 K, 9016.6 kPa, x2 = 0.4998 | 164.336 ± 0.073
323.15 K, 9045 kPa, x2 = 0.7509 | 195.026 ± 0.082
